Source: patent publication US10004716B2, “Therapeutic/ preventive agent containing coumarin derivative as active ingredient” (NIPPON ZOKI PHARMACEUTICAL CO., LTD., priority 2014, dated 2018)

What was measured:
[1] = test system: α-smooth muscle actin (SMA) gene expression; assay: Evaluation I: TGF-β-induced gene expression of fibrosis-related factors in NHLF cells: α-SMA; assay type: cell-based, human; conditions: 25 μmol/L test substance 2 hours, then TGF-β 5 ng/mL 24 hours, n = 3
Method: (§1) NHLF cells were sown so as to make their amount 4×10^4 cells/well to each well of a 12-well plate and incubated to an extent of 80% confluent in a medium where fibroblast growth medium 2 supplement mix (FGM-2 SingleQuots, Lonza) was added to a fibroblast basal medium (FBM, Lonza). After that, incubation was conducted for 2 hours in a Dulbecco modified Eagle medium (DMEM) containing 25 μmol/L of a test substance and, after addition of […] growth factor (TGF)-β thereto so as to make its final concentration 5 ng/mL, incubation was carried out for 24 hours more.
(§2) QIAzol Lysis Reagent (QIAGEN) (1 mL) was added to the above to suspend, 200 μL of chloroform was added thereto followed by mixing and centrifugation (at 4° C. and 1500 rpm) was then conducted whereby the supernatant liquid was recovered. Total RNA was extracted and purified by treating the supernatant liquid with QIACube (QIAGEN) and RNeasy Micro Kit (QIAGEN). cDNA was prepared from the total RNA using Omniscript RT kit (QIAGEN) and Oligo(dT)12-18 Primer (Invitrogen).
(§3) Gene expression level of the fibrosis-related factors [connective tissue growth factor (CTGF), α-smooth muscle actin (SMA), fibronectin, endothelin and type I collagen (Col 1)] was measured by a conventional real time PCR method using a fluorescent dye SYBR GREEN I (Roche Diagnostics) by Light Cycler LC 480 (the same) using cDNA synthesized from the total RNA extracted in the above (2). A calibration curve was prepared by diluting the PCR product quantified by PicoGreen dsDNA Quantitation kit (Molecular probes) (a DNA quantitation kit) to an extent of 10^2˜10^7 copies/μL. From each of the resulting quantified values, copy numbers per 10000 copies of GAPDH gene being an internal standard were calculated.

[2] = test system: type I collagen (Col 1) gene expression; assay: Evaluation I: TGF-β-induced gene expression of fibrosis-related factors in NHLF cells: Col 1; assay type: cell-based, human; conditions: 25 μmol/L test substance 2 hours, then TGF-β 5 ng/mL 24 hours, n = 3
Method: as §1, §2, §3

COX-2 gene expression = assay: Suppression of IL-1α-induced gene expression of inflammation-related factors in bovine cartilage pieces (real time PCR): COX-2; assay type: cell-based; conditions: 20 μmol/L test substance 2 hours, then IL-1α 3 ng/mL 8 hours, n = 3
Method: (§4) Each 6 to 8 cartilage pieces (diameter: 4 mm) of bovine metacarpophalangeal joint were placed into each well of a 24-well plate and incubated for one night in 1 mL of a basal medium in a CO2 incubator which was set at 37° C. and 5% by volume of CO2. After that, they were incubated for 2 hours in a basal medium containing 20 μmol/L of a test substance and, after addition of human recombinant IL-1α (3 ng/mL) thereto, they were incubated for 8 hours more. After completion of the incubation, the culture medium was discarded, an RNA stabilizer was added to the cartilage pieces, the mixture was incubated at 4° C. for one night and the cartilage pieces were finely cut using scissors, placed into micro-tubes and stored with freezing until the extraction of RNA therefrom.
(§5) The cartilage pieces placed in the micro-tubes were pulverized using Tissue Lyser (QIAGEN) (at 25 Hz for 5 minutes; for two times), 1 mL of QIAzol Lysis Reagent (QIAGEN) was added thereto to suspend, 200 μL of chloroform was added thereto followed by mixing and the mixture was centrifuged (1500 rpm at 4° C.) to recover the supernatant liquid. Total RNA was extracted and purified using QIACube (QIAGEN) and RNeasy Micro Kit (QIAGEN). cDNA was prepared from the total RNA using Omniscript RT Kit (QIAGEN) and Oligo(dT)12-18 Primer (Invitrogen).
(§6) The cDNA synthesized from the total RNA extracted in the above (2) was used to measure the gene expression level of the inflammation-related factors [IL-1β, IL-6, COX-2 and iNOS (inducible nitric oxide synthase)] by a conventional real time PCR method using a fluorescent dye SYBR GREEN I (Roche Diagnostics) by a Light Cycler LC 480 (the same). A calibration curve was prepared by dilution of a PCR product quantified by a DNA quantitation kit (PicoGreen dsDNA Quantitiation Kit (Molecular Probes)) to an extent of 10^2˜10^7 copies/μL. From each of the resulting measured data, copy numbers per 10000 copies of glyceroaldehyde-3-phosphate dehydrogenase (GAPDH) which was an internal standard were calculated.

IL-1β gene expression = assay: Suppression of IL-1α-induced gene expression of inflammation-related factors in bovine cartilage pieces (real time PCR): IL-1β; assay type: cell-based; conditions: 20 μmol/L test substance 2 hours, then IL-1α 3 ng/mL 8 hours, n = 3
Method: as §4, §5, §6

IL-6 gene expression = assay: Suppression of LPS-induced gene expression of inflammation-related factors in THP-1 cells (real time PCR): IL-6; assay type: cell-based, human; conditions: PMA-differentiated THP-1 cells; test substance 12.5 μmol/mL 2 hours, then LPS 10 mg/mL 3 hours; n = 3
Method: THP-1 cells were subjected to induction of differentiation for 72 hours with PMA (phorbol 12-myristate 13-acetate; 100 nM/L) and then the THP-1 cells (5×10^5 cells/mL) were incubated for 24 hours in a RPMI 1640+10% FCS culture solution in a 24-well plate. After that, a test substance was added so as to make the final concentration 12.5 μmol/mL followed by conducting the preincubation for 2 hours, a lipopolysaccharide (LPS) was then added thereto so as to make the final concentration 10 mg/mL and, after 3 hours, the cells were recovered.
as §2, with “was” for “was then”
as §3, with “inflammation-related” for “fibrosis-related”, “[IL-1β, IL-6” for “[connective tissue growth factor (CTGF), α-smooth muscle actin (SMA), fibronectin, endothelin”, “monocyte chemotactic protein (MCP)-1]” for “type I collagen (Col 1)]”

| Compound | Copy Numbers per 10000 Copies of GAPDH α-SMA [1] | Copy Numbers per 10000 Copies of GAPDH Col 1 [2] | Copy Numbers per 10000 Copies of GAPDH COX-2 (COX-2 gene expression) | Copy Numbers per 10000 Copies of GAPDH IL-1β (IL-1β gene expression) | Copy Numbers per 10000 Copies of GAPDH IL-6 (IL-6 gene expression) |
| --- | --- | --- | --- | --- | --- |
| O=c1oc2c(OS(=O)(=O)c3ccc(C(F)(F)F)cc3)cccc2cc1NS(=O)(=O)c1cccc(C(F)(F)F)c1 [Compound 57, 2-Oxo-3-[[3-(trifluoromethyl)phenyl]sulfonylamino]-chromen-8-yl 4-(trifluoromethyl)benzenesulfonate] | 1166.3 copies per 10000 copies of GAP | 9715.8 copies per 10000 copies of GAP | 1420.8 copies per 10000 copies of GAP | 144.8 copies per 10000 copies of GAP | 49.0 copies per 10000 copies of GAP |
| O=c1oc2c(OS(=O)(=O)c3ccc(C(F)(F)F)cc3)cccc2cc1NS(=O)(=O)c1cccc(Br)c1 [Compound 58, 3-[(3-Bromophenyl)sulfonylamino]-2-oxochromen-8-yl 4-(trifluoromethyl)benzenesulfonate] | 826.9 copies per 10000 copies of GAP | 5901.0 copies per 10000 copies of GAP | 982.3 copies per 10000 copies of GAP | 157.8 copies per 10000 copies of GAP | 93.2 copies per 10000 copies of GAP |
| O=c1oc2c(OS(=O)(=O)c3cccc(Br)c3)cccc2cc1NS(=O)(=O)c1cccc(C(F)(F)F)c1 [Compound 60, 2-Oxo-3-[[3-(trifluoromethyl)phenyl]sulfonylamino]-chromen-8-yl 3-bromobenzenesulfonate] | 1324.8 copies per 10000 copies of GAP | 11388.1 copies per 10000 copies of GAP | 920.6 copies per 10000 copies of GAP | 170.6 copies per 10000 copies of GAP | 275.2 copies per 10000 copies of GAP |
| O=c1oc2c(OS(=O)(=O)c3cccc(C(F)(F)F)c3)cccc2cc1NS(=O)(=O)c1ccc(C(F)(F)F)cc1 [Compound 68, 2-Oxo-3-[[4-(trifluoromethyl)phenyl]sulfonylamino]-chromen-8-yl 3-(trifluoromethyl)benzenesulfonate] | 1007.1 copies per 10000 copies of GAP | 8905.8 copies per 10000 copies of GAP | 1655.9 copies per 10000 copies of GAP | 175.1 copies per 10000 copies of GAP | 95.7 copies per 10000 copies of GAP |
